pIC50: −log10 of the molar value. Where “and” joins values, the source holds several entries; their conditions need not be identical. Identical values can stand only once. Residues, ends and D or L forms follow the SMILES beside them.
How the values were obtained:
[1] = molecular target: angiotensin I converting enzyme (ACE) (Homo sapiens, UniProt P12821); test: biochemical; settings: for IC50: IC50 (μM), synthetic peptides, tested in triplicate, deduced from linearized inhibition curve; for inhibition at 50 µM: primary amine or captopril concentration equal to 50 μM, chromatographic peaks collected from trypsic hydrolysate of αS2 casein, tested twice
[2] = test system: spontaneously hypertensive rats; settings: 6 hours after oral administration of 1 mg synthesized peptide per kg, Maeno et al. (13); cited from earlier work
[3] = molecular target: angiotensin I converting enzyme (Homo sapiens, UniProt P12821); settings: Maeno et al. (13); read-out: IC50, quantity of peptide needed for inhibiting 50% of the enzyme activity; cited from earlier work
bacteria = settings: Zucht et al. (10); Recio and Visser (11); cited from earlier work

Sequence of angiotensin I converting enzyme (P12821 30-1306): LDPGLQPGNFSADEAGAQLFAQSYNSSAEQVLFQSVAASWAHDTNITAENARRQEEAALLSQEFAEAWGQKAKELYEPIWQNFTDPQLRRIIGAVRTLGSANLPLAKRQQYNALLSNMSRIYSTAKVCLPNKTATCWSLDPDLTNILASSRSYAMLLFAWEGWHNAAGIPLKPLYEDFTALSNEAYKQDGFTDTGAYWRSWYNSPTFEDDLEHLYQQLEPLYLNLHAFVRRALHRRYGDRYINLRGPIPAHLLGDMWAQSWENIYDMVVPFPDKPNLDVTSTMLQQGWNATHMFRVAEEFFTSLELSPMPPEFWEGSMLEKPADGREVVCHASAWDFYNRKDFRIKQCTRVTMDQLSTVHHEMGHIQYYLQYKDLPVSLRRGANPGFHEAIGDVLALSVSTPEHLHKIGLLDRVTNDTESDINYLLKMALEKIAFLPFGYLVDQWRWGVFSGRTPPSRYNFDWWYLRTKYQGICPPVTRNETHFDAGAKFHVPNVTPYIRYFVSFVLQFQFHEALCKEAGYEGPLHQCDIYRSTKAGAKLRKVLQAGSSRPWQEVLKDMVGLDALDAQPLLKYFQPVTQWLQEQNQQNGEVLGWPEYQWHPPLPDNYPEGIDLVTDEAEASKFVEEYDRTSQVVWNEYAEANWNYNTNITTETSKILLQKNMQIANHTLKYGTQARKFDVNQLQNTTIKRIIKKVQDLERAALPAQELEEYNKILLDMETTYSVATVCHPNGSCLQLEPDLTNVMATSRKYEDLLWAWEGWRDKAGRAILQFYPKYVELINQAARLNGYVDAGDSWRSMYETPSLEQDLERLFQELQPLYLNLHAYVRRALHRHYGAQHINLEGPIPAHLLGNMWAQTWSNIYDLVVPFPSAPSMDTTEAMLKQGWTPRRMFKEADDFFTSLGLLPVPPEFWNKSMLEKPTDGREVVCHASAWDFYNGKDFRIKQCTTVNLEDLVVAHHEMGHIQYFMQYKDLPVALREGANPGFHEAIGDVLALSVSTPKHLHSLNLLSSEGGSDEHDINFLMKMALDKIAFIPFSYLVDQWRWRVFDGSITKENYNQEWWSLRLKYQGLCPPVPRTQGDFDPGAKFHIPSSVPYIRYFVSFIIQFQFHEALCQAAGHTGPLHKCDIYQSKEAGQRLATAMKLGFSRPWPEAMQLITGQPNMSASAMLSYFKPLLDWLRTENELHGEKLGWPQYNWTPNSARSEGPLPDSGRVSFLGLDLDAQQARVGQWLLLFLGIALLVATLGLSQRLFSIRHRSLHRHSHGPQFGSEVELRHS
Sequence of angiotensin I converting enzyme (ACE) (P12821 30-1306, species assumed): as the sequence (P12821 30-1306) above

Row | Molecule | IC50 [1] | inhibition at 50 µM [1] [%] | other results
1 | CC[C@H](C)[C@H](NC(=O)[C@H](C)NC(=O)[C@H](CCSC)NC(=O)[C@@H](N)CC(N)=O)C(=O)N[C@@H](CC(N)=O)C(=O)N1CCC[C@H]1C(=O)N[C@@H](CO)C(=O)N[C@@H](CCCCN)C(=O)O [CNαS2-(f25-32)] (H-NMAINPSK-OH; N-terminus and C-terminus assumed) | < 60 µM | 42.5 | –
2 | CNαS2-(f190-197): αS2 casein peptide 190-197, ACE inhibitor reported by Maeno et al. (13) (MKPWIQPK; UniProt P02663 205-212, looked up, fragment) | – | – | antihypertensive effect in vivo [2]: do not present any significant antihypertensive effect; pIC50 [3]: 3.52
3 | CNαS2-(f164-179): αS2 casein peptide with antibacterial activity, Recio and Visser (11) (LKKISQRYQKFALPQY; UniProt P02663 179-194, looked up, fragment) | – | – | antibacterial activity (bacteria): antibacterial activity
4 | CNαS2-(f198-202): αS2 casein peptide 198-202, ACE inhibitor reported by Maeno et al. (13) (TKVIP; UniProt P02663 213-217, looked up, fragment) | – | – | antihypertensive effect in vivo [2]: do not present any significant antihypertensive effect; pIC50 [3]: 3.40
5 | CC(C)C[C@H](NC(=O)[C@H](C)NC(=O)[C@@H](N)Cc1ccccc1)C(=O)N1CCC[C@H]1C(=O)O [CNαS2-(f174-177), Phe-Ala-Leu-Pro] (H-FALP-OH) | < 60 µM | – | –
6 | CC(C)[C@H](NC(=O)[C@@H](N)[C@@H](C)O)C(=O)N[C@@H](Cc1ccc(O)cc1)C(=O)O [CNαS2-(f182-184), Thr-Val-Tyr] (H-Thr-Val-Tyr-OH; N-terminus and C-terminus assumed) | < 60 µM | > 70 | –
7 | CC[C@H](C)[C@H](NC(=O)[C@H](C)NC(=O)[C@H](CCSC)NC(=O)[C@@H](N)CC(N)=O)C(=O)N[C@@H](CC(N)=O)C(=O)N1CCC[C@H]1C(=O)O [CNαS2-(f25-30), Asn-Met-Ala-Ile-Asn-Pro] (H-NMAINP-OH) | < 60 µM | – | –
8 | CNαS2-(f165-203): αS2 casein peptide with antibacterial activity, Zucht et al. (10) (KKISQRYQKFALPQYLKTVYQHQKAMKPWIQPKTKVIPY; UniProt P02663 180-218, looked up, fragment) | – | – | antibacterial activity (bacteria): antibacterial activity
9 | CC(C)C[C@H](NC(=O)[C@H](Cc1ccc(O)cc1)NC(=O)[C@H](CCC(N)=O)NC(=O)[C@@H]1CCCN1C(=O)[C@@H](N)Cc1ccccc1)C(=O)N[C@@H](CCC(N)=O)C(=O)N[C@@H](Cc1ccc(O)cc1)C(=O)O [CNαS2-(f92-98), Phe-Pro-Gln-Tyr-Leu-Gln-Tyr] (H-FPQYLQY-OH; N-terminus and C-terminus assumed) | < 60 µM | > 70 | –
10 | CC[C@H](C)[C@H](NC(=O)[C@H](CCC(=O)O)NC(=O)[C@H](CC(N)=O)NC(=O)[C@H](CC(C)C)NC(=O)[C@H](C)N)C(=O)N[C@@H](CC(N)=O)C(=O)N[C@@H](CCC(N)=O)C(=O)N[C@@H](Cc1ccccc1)C(=O)N[C@@H](Cc1ccc(O)cc1)C(=O)N[C@@H](CCC(N)=O)C(=O)N[C@@H](CCCCN)C(=O)O [CNαS2-(f81-91)] (H-ALNEINQFYQK-OH; N-terminus and C-terminus assumed) | – | 27.2 | –
11 | CC(C)C[C@H](NC(=O)[C@H](Cc1ccc(O)cc1)NC(=O)[C@H](CCC(N)=O)NC(=O)[C@@H]1CCCN1C(=O)[C@H](CC(C)C)NC(=O)[C@H](C)NC(=O)[C@@H](N)Cc1ccccc1)C(=O)N[C@@H](CCCCN)C(=O)O [CNαS2-(f174-181)] (H-FALPQYLK-OH; N-terminus and C-terminus assumed) | < 60 µM and 4.3 µM | > 70 | –
12 | CC(C)C[C@H](NC(=O)[C@H](C)NC(=O)[C@@H](N)Cc1ccccc1)C(=O)N1CCC[C@H]1C(=O)N[C@@H](CCC(N)=O)C(=O)N[C@@H](Cc1ccc(O)cc1)C(=O)O [CNαS2-(f174-179), Phe-Ala-Leu-Pro-Gln-Tyr] (H-FALPQY-OH; N-terminus and C-terminus assumed) | < 60 µM and 4.3 µM | > 70 | –
13 | CC[C@H](C)[C@H](NC(=O)[C@H](CCC(=O)O)NC(=O)[C@H](CC(N)=O)NC(=O)[C@H](CC(C)C)NC(=O)[C@H](C)N)C(=O)N[C@@H](CC(N)=O)C(=O)N[C@@H](CCC(N)=O)C(=O)N[C@@H](Cc1ccccc1)C(=O)N[C@@H](Cc1ccc(O)cc1)C(=O)O [CNαS2-(f81-89)] (H-ALNEINQFY-OH; N-terminus and C-terminus assumed) | – | 32.2 | –
14 | CNαS2-(f189-193): αS2 casein peptide 189-193, ACE inhibitor reported by Maeno et al. (13) (AMKPW; UniProt P02663 204-208, looked up, fragment) | – | – | antihypertensive effect in vivo [2]: do not present any significant antihypertensive effect; pIC50 [3]: 3.24
